Source: patent US20250346643A1, “TROPOMYOSIN KINASE RECEPTOR (TRK) LIGANDS AS THERAPEUTICS TO SUPPORT LIVER REGENERATION” (Vanderbilt University, priority 2024, published 2025)

Key:
[1] = test system: HSC-depleted mice (liver); assay: Treatment of HSC-depleted mice with recombinant NTF3; format: in vivo, mouse
Description: T cell isolation and adoptive transfer. CD8+ T cells were isolated from spleen and lymph nodes (brachial, inguinal, axillar, submandibular, superficial cervical and mesenteric) of Jedi and controls. Spleens and lymph nodes were collected in ice cold T cell media (RPMI [Gibco® 11875-093] supplemented by 10% FBS, 2 mM L-glutamine [Thermo Fisher Scientific, Waltham, MA; 25030-081], 1% MEM nonessential amino acids [Thermo Fisher Scientific, Waltham, MA; 11140050] and 1 mM sodium pyruvate [Thermo Fisher Scientific, Waltham, MA; 11360-070]). Spleen and lymph nodes were mechanically homogenized and filtered through a 70 μm cell strainer (Falcon®). The cell suspension was centrifuged for 10 min at 4° C., 300 g. Red blood cell (RBC) lysis was performed with RBC buffer (Thermo Fisher Scientific, Waltham, MA; A10492). Cells were then washed with T cell media, filtered through a 70 μm cell strainer and centrifuged for 10 min at 4° C., 300 g. The cell pellet was then resuspended in flow buffer (PBS, pH 7.4, 2 mM EDTA, 0.05% BSA) and CD8+ T cells enriched using the mouse CD8+ T cell isolation kit (STEMCELL technologies, Vancouver, Canada; 19853A) according to the manufacturer's instructions. Enriched CD8+ T cells were centrifuged for 10 min at 4° C., 300 g, and resuspended in PBS. Mice with less than 25 g body weight were injected with up to 12 million Jedi T cells and mice greater than 25 g body weight were injected by tail vein injection with 18 million Jedi T cells. Control mice were injected with either T cells from H-2K^d mice or with vehicle only. Mice were not injected with lentiviral GFP particles as previously described (Agudo et al., Nat Biotechnol. 2015; 33(12): 1287-1292; Agudo et al., 2018; 48(2): 271-285.e5) to avoid lentiviral GFP-expression of other cells such as hepatocytes.
Treatment with recombinant NTF3. Four months old mice were injected via tail vein for 4 consecutive days with recombinant NTF3 (STEMCELL technology, Vancouver, Canada; cat. 78074, lots 1000070683, 1000077434) diluted in sterile 0.9% saline (0.9% NaCl) or vehicle only. Mice were weighed daily and recombinant NTF3 given at 20 ng/g body weight or 100 ng/g body weight, respectively. Lyophilized NTF3 was solubilized in 0.1% BSA/PBS (bovine serum albumin, Sigma-Aldrich, St. Louis, MO; A3059) and stored at −80° C. until use.
Immunohistochemistry. For immunohistochemistry, formalin-fixed paraffin embedded sections were cut at 4 μm thickness and slides incubated at 65° C. for 30 min. Slides were deparaffinized in Histo-Clear® (National Diagnostics, Charlotte, NC; HS2001GLL) and rehydrated by an ethanol gradient. Heat antigen retrieval was performed in 10 mM sodium citrate (pH 6.0) in a pressure cooker (Cuisinart®, CPC-600C), 20 min at high-pressure, natural pressure release for 30 min, and cooled at room temperature (i.e., about 20° C. to about 22° C.) for 30 min. Endogenous peroxidase quenching was performed with 1.5% hydrogen peroxide (Sigma-Aldrich, St. Louis, MO; H1009) for 20 min, and slides washed twice in phosphate buffered saline (PBS) twice. Blocking was performed for 30 min with Protein Block, Serum-free (Agilent, Santa Clara, CA; X090930-2). The primary antibody (TABLE 1) was diluted in antibody diluent (Agilent, Santa Clara, CA; S080983-2) and applied to the slides in a wet chamber overnight at 4° C. After 2 washes in PBS, slides were incubated with the appropriate secondary antibody (TABLE 1) for 30 min followed by two washes in PBS. […] The same reveal time was then used on all experimental slides. Slides were stained with hematoxylin (Sigma-Aldrich, St. Louis, MO; GHS332) for 30 sec, washed gently in lukewarm tap water for 5 min, and washed twice in distilled water, followed by two washes in phosphate buffered saline (PBS, pH 7.4). Slides were washed in increasing ethanol/water gradients, followed by three washes in Histo-Clear®. […]

HepG2 cells = assay: Cell proliferation assay (CellTiter-Glo) in HepG2 cells; format: cell-based, human; settings: NTF3 20 ng/ml, HepG2 (FIG. 8G-H)
Description: Cell lines. Human HepG2 (ATCC HB-8065) were maintained in MEM media with 10% FBS and the mouse hepatocyte cell line AML12 (ATCC, Manassas, VA; CRL-2254) in DMEM/F12 media supplemented with dexamethasone (40 ng/ml) and Insulin-Transferrin-Selenium (Gibco, Waltham, MA; 41400045), containing 10% FBS and 1% penicillin and streptomycin. JS1 (RRID: CVCL_C7PL), LX2 (RRID: CVCL_5792, MilliporeSigma, Burlington, MA; SCC064) and TWNT4 (RRID: CVCL_W296) cells were cultured in DMEM supplemented with 10% FBS. 293T cells (ATCC, Manassas, VA; CRL-3216) were cultured in DMEM supplemented with 10% FBS.
Cell proliferation assays. Primary mouse hepatocytes, HepG2 or AML 12 cells were grown in opaque-walled 96-well plates. NTF3 (final concentration 20 ng/ml) (STEMCELL Technologies, Vancouver, Canada; cat. 78074) and/or Loxo-195 (final concentration 5 nM) (Selleckchem, Houston, TX; S8636) were added into complete growth media without L-glutamine. Primary mouse hepatocytes were also grown in serum-free William's E media without supplements. Cells were analyzed by CellTiter-Glo® (Promega G7570, Madison, WI) which detects the number of viable cells on day 0 to day 5 by on detection systems GloMax® (Promega) or Bioteck Synergy H1 (Agilent, Santa Clara, CA). Mouse recombinant HGF (Abcam, Cambridge, UK; ab281797) was added to cell culture media at a final concentration 5 ng/ml. […]

**Q.** Which results are given for “NTF3: neurotrophin-3, recombinant protein; HSC-derived hepatocyte mitogen, ligand of TRKA, TRKB, TRKC”?
**A.** IGFBP2 expression in hepatocytes ([1]; HSC-ablated mice, NTF3): only increased CCND1 but not IGFBP2 expression; liver-to-body weight ratio ([1]; HSC-depleted mice, NTF3 20 ng/g or 100 ng/g body weight, tail vein, 4 consecutive days (FIG. 10C)): dose-dependently increased; liver-to-body weight ratio, higher dose group ([1]; HSC-depleted mice, NTF3 100 ng/g body weight, 4 consecutive days): significant increase; number of CCND1+HNF4a+ nuclei (multiplex immunohistochemistry) ([1]; HSC-depleted mice, NTF3 20 or 100 ng/g (FIG. 10E-F)): dose-dependently increased; nuclear CCND1 in hepatocytes in the midlobular region (staining) ([1]; HSC-depleted mice, NTF3 vs vehicle (FIG. 10D)): increased nuclear CCND1; Ki67+ hepatocytes ([1]; HSC-depleted mice, NTF3 vs vehicle (FIG. 10G-H)): increase; PCNA in whole liver lysates (Western blotting) ([1]; HSC-depleted mice, NTF3 vs vehicle (FIG. 10I, 11B)): increased; CCND1 in whole liver lysates (Western blotting) ([1]; HSC-depleted mice, NTF3 vs vehicle (FIG. 10I, 11C)): increased; cell proliferation (HepG2 cells): greatly stimulated cell proliferation
